The target of one experiment is T1, mPGES-1 (Homo sapiens, UniProt O14684).
T1 construct: microsomal preparations of IL-1β-stimulated A549 cells, a rich source of mPGES-1; endogenous in cells; host or cells: A549 cells, IL-1β-stimulated, microsomal fraction
T1 sequence (O14684 1-152): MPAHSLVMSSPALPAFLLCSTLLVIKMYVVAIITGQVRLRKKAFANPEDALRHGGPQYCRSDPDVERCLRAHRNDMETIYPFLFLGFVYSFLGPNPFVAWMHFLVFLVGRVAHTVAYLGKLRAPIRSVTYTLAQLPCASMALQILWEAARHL
The experiment can be described thus: PGE2 synthase activity in microsomes of IL-1β-stimulated A549 cells. Type of experiment: biochemical. The settings on record: for IC50: 15 min pre-incubation at 4°C, 20 μM PGH2, 1 min, read-out: IC50 of PGE2 formation (mPGES-1 activity).

In experiment [1] the test system is 6-keto PGF1α formation in LPS-stimulated human whole blood. Nature of the experiment: 6-keto PGF1α formation in LPS-stimulated human whole blood. Type of experiment: cell-based. As to conditions: MK-886 30 μM, MD-52 6 μM; LPS 5 h.
Experiment [2] relates to TXB2 formation in LPS-stimulated human whole blood. Nature of the experiment: TXB2 formation in LPS-stimulated human whole blood. Type of experiment: cell-based. The settings on record: MK-886 30 μM, MD-52 6 μM; LPS 5 h.
Experiment [3] relates to PGE2 formation in LPS-stimulated human whole blood. The experiment can be described thus: PGE2 formation in LPS-stimulated human whole blood. The class given is cell-based. The settings on record: controls: MK-886 30 μM, MD-52 6 μM, indomethacin 50 μM, celecoxib 20 μM; LPS 5 h.
For experiment [4], the system named is 12-HHT formation (mainly derived from platelet COX-1) in human whole blood. The experiment can be described thus: 12-HHT formation in human whole blood (A23187 plus AA). The settings on record: indomethacin 20 μM, aspirin 30 μM. The class given is cell-based.
For experiment [5], the system named is carrageenan-induced mouse paw edema. Nature of the experiment: Carrageenan-induced paw edema in mice. The class given is in vivo. As to conditions: for ED50 paw edema formation: i.p., areas under the curves 2-6 h. As to the method: Mice were divided into groups (n = 10 for each group) and lightly anesthetized with enflurane 4% mixed with O2, 0.5 l min^−1, N2O 0.5 l min^−1. Each group of animals received subplantar administration of saline (0.05 ml) or of λ-carrageenan type IV 1% (w v^−1, 0.05 ml) in saline. The paw was marked in order to immerge it always at the same extent in the measurement chamber. The volume was measured by using a hydroplethismometer, specially modified for small volumes (Ugo Basile, Milan, Italy), immediately before subplantar injection and 2, 4, and 6 h thereafter (Posadas et al., [2004]). The assessment of paw volume was performed always in double blind and by the same operator. The increase in paw volume was calculated by subtracting the initial paw volume (basal) to the paw volume measured at each time point.
Background: The carrageenan paw model is a standard test of acute inflammation.

Experiment [6] concerns carrageenan-induced pleurisy. The experiment can be described thus: Carrageenan-induced pleurisy in rats. As to conditions: 4 h after carrageenan; for PGE2 in exudate: vehicle 1.81 ± 0.16; for Inflammatory cells: vehicle 103.0 ± 15.4. Type of experiment: in vivo, rat.
The target of another experiment is 5-lipoxygenase (5-LO). More on the design: method as in Albert et al., 2002; Feisst et al., 2009. The settings on record: neutrophils; ref Albert et al., 2002; Feisst et al., 2009; read-out: IC50 of leukotriene biosynthesis; cited from earlier work.
Another experiment relates to COX-2 expression. Nature of the experiment: Induction of COX-2 in IL-1β-stimulated A549 cells (Western blot). As to conditions: Homo sapiens, 24 h, read-out: EC50 of inhibition of COX-2 induction. Type of experiment: cell-based. The method, then:
(§1) Cells (4 × 10^6 cells) were resuspended in 50 μl PBS buffer pH 7.2, mixed with the same volume of 2 × SDS/PAGE sample loading buffer (20 mM Tris–HCl, pH 8, 2 mM EDTA, 5% (m v^−1) SDS, and 10% (v v^−1) β-mercaptoethanol), and boiled for 5 min at 95°C. Aliquots (20 μl) corresponding to equivalents of 0.8 × 10^6 cells were mixed with 4 μl glycerol/0.1% bromophenol blue (1:1, v v^−1), and proteins were separated by SDS-PAGE. After electroblotting to nitrocellulose membrane (GE Healthcare, Munich, Germany) and blocking with 5% BSA for 1 h at room temperature, membranes were washed and incubated with primary antibodies overnight at 4°C. The membranes were washed and incubated with a 1:1000 dilution of alkaline phosphatase-conjugated immunoglobulin G for 3 h at room temperature. After washing, proteins were visualized with nitro blue tetrazolium and 5-bromo-4-chloro-3-indolylphosphate.
(§2) Cells were harvested after 24 h, total cell lysates were prepared and analyzed for the induction of COX-2 (72 kDa), mPGES-1 (16 kDa) and cleaved PARP (89 kDa) using SDS-PAGE and Western blotting. β-Actin (45 kDa) was used as loading control. Data are representatives of two to three independent experiments.

The test system of another experiment is mPGES-1 expression. Nature of the experiment: Induction of mPGES-1 in IL-1β-stimulated A549 cells (Western blot). Type of experiment: cell-based. The settings on record: Homo sapiens, 24 h, read-out: EC50 of inhibition of mPGES-1 induction. The method, then: as §1, §2
In general terms: A western blot detects proteins with antibodies after separation by electrophoresis.

For another experiment, the system named is A549 cells. Nature of the experiment: cells. The settings on record: Homo sapiens, A549, 24 h, read-out: EC50 of reduction of cell viability.
Experiment [7] relates to A549 lung carcinoma cells. The experiment can be described thus: Apoptosis of A549 cells monitored by cleavage of PARP. The class given is cell-based. As to conditions: Homo sapiens, A549, 24 h. As to the method:
as §1, §2

The subject of the next experiment is COX-1. More on the design: method as in Albert et al., 2002; Feisst et al., 2009. As to conditions: human platelets; ref Albert et al., 2002; Feisst et al., 2009; cited from earlier work.
In a further experiment the test system is COX-2. More on the design: method as in Albert et al., 2002; Feisst et al., 2009. As to conditions: monocytic Mono Mac 6 cells; ref Albert et al., 2002; Feisst et al., 2009; read-out: COX-2 activity (6-keto PGF1α synthesis), not affected up to; cited from earlier work.
[8] abbreviates: Hyp 4 mg kg^−1 i.p., indomethacin 5 mg kg^−1.
Where [9] appears, read: i.p. 30 min before, Hyperforin 4 mg kg^−1, Indomethacin 5 mg kg^−1.

Results on nine molecules are retold here after publication PMC3108608 (Frontiers in Pharmacology, 2011).

Regarding `CC(C)CCC[C@]1(C)[C@@H](CCC(C)C)C[C@@]2(CCC(C)C)C(=O)[C@]1(C(=O)C(C)C)C(=O)C(CCC(C)C)=C2O` [octahydro-hyperforin], the “mPGES-1 inhibition compared with Hyp” value at mPGES-1 (20 μM PGH2) is “equally effective”.
Take `CC(C)c1ccc2c(c1)c(SC(C)(C)C)c(CC(C)(C)C(=O)O)n2Cc1ccc(Cl)cc1` [MK-886]: the “effect on 6-keto PGF1α formation” value in experiment [1] is “failed to suppress”. The “effect on TXB2 formation” value in experiment [2] was “failed to suppress”. The “effect on PGE2 formation” value in experiment [3] is given as “only partially inhibited”.
Consider `CC(=O)Oc1ccccc1C(=O)O` [aspirin], for which the “effect on 12-HHT formation” value in [4] is given as “almost completely blocked”.
`Cc1ccc(-c2cc(C(F)(F)F)nn2-c2ccc(S(N)(=O)=O)cc2)cc1` [celecoxib]: the “effect on PGE2 formation” value in experiment [3] is given as “effectively reduced”.
For the molecule `CC(C)=CCC1C(=O)C(C(=O)CC(C)C)=C(O)C(O)(CC=C(C)C)C1=O` (centres unmarked) [humulone], on mPGES-1, the IC50 was greater than 10000 nM.
In the case of `COc1ccc2c(c1)c(CC(=O)O)c(C)n2C(=O)c1ccc(Cl)cc1` [indomethacin], in experiment [4], the “effect on 12-HHT formation” value is listed as “almost completely blocked”. Besides, the “inhibition of edema formation from areas under the curves (2-6 h)” value in experiment [5] (5 mg kg^−1 i.p.) is recorded as 52 % of control. Besides, in [5] (5 mg kg^−1 i.p. 30 min before carrageenan), the “reduction of peak paw edema response at 4 h” value was found to be 57%. Moreover, the “ED50 paw edema formation” value in [5] was found to be 5 mg/kg. For the same molecule, the “effect on PGE2 formation” value in experiment [3] was “effectively reduced”. Also, in experiment [6] (setting [8]), the “attenuation of cell infiltration” value is on record as 65% and the “attenuation of exudate formation” value turned out to be 75%. This molecule had an Exudate volume in [6] (i.p. 30 min before, Hyperforin 4 mg kg^−1, Indomethacin 5 mg kg^−1, vehicle 0.44 ± 0.04) of 0.11 ± 0.04 mL. For the same molecule, in [6] (setting [9]), the PGE2 in exudate was determined as 0.19 ± 0.05 ng/rat and the Inflammatory cells is recorded as 35.8 ± 4.2 ×10^6.
Broadly, the EC50 is the concentration giving half of the maximal effect. As to `CC(C)=CCCC1(C)C(CC=C(C)C)CC2(CC=C(C)C)C(=O)C1(C(=O)C(C)C)C(=O)C(CC=C(C)C)=C2O` (centres unmarked) [Hyp, Hyperforin], the IC50 on 5-lipoxygenase (5-LO) was 1000 to 2000 nM; in the experiment on COX-1 it was 3000 nM; in the experiment with COX-2, greater than 30000 nM. Moreover, the EC50 is 1000 to 3000 nM in the experiment with COX-2 expression, 1000 to 3000 nM in the experiment on mPGES-1 expression, roughly 3000 nM with A549 cells and roughly 3000 nM in experiment [7]. The “inhibition of edema formation from areas under the curves (2-6 h)” value in [5] (0.25 mg kg^−1 i.p.) is given as 27 % of control; in [5] (1 mg kg^−1 i.p.) it was 49 % of control; in experiment [5] (4 mg kg^−1 i.p.) it was 76 % of control. For the same molecule, the “reduction of peak paw edema response at 4 h” value in [5] (0.25 mg kg^−1 i.p. 30 min before carrageenan) is given as 35%; in experiment [5] (1 mg kg^−1 i.p. 30 min before carrageenan), 63%; in experiment [5] (4 mg kg^−1 i.p. 30 min before carrageenan), 78%. Also, in [5], the “ED50 paw edema formation” value was 1 mg/kg. In [6] (setting [8]), the “attenuation of exudate formation” value was 64%. In experiment [6] (setting [9]), this molecule displayed a PGE2 in exudate of 0.97 ± 0.15 ng/rat. Moreover, in [6] (setting [9]), the Inflammatory cells is reported as 51.3 ± 7.2 ×10^6.
With `Cc1c(O)cc(O)c(C(=O)C(C)C)c1O` [acylphloroglucinol core], the IC50 on mPGES-1 was greater than 10000 nM.
Turning to `Clc1ccccc1-c1nc2c3ccccc3c3ccccc3c2[nH]1` [MD-52, 2-(2-chlorophenyl)-1H-phenanthro[9,10-d]-imidazole], the “effect on 6-keto PGF1α formation” value in [1] is on record as “failed to suppress”. Moreover, the “effect on TXB2 formation” value in experiment [2] is recorded as “failed to suppress”. Moreover, the “effect on PGE2 formation” value in experiment [3] is reported as “only partially inhibited”.
